Measurements as given in PMC9168620, “Genetic validation of Aspergillus fumigatus phosphoglucomutase as a viable therapeutic target in invasive aspergillosis” (The Journal of Biological Chemistry, 2022).
≈ marks a conversion by molar mass, not a printed value. Entries after “also recorded” stand apart in the source; their conditions may differ. Like-named read-outs stand apart in the source and are kept apart here.

Assays:
HsPGM = molecular target: T1, HsPGM (Homo sapiens, UniProt P36871); assay: G6PDH coupled assay for PGM, HsPGM; type: biochemical
T1 construct: Full length HsPGM; 6His-GST (N, cleaved yes); made in house; host or cells: E. coli BL21 (DE3) pLysS (same protocol as AfPGM)
T1 sequence (P36871 1-562): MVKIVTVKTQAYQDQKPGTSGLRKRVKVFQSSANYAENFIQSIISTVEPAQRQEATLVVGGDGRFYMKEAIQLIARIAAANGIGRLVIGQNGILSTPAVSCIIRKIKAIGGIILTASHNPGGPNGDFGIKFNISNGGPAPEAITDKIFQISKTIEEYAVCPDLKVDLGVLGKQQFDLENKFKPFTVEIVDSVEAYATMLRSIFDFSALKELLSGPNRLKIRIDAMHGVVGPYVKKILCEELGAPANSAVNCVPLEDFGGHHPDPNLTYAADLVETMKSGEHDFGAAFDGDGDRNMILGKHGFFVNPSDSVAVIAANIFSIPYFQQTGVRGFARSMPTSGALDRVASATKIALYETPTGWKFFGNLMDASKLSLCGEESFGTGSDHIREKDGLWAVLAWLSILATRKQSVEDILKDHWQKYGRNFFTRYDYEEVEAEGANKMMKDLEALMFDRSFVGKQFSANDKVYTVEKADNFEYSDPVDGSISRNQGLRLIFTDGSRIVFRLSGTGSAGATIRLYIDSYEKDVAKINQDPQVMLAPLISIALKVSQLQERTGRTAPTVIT
Procedure: (§1) The reaction mixture contained MOPS–NaOH (pH 7.4; 50 mM), MgSO4 (1.5 mM), NADP^+ (1 mM), G6PDH (0.01 U) from L. mesenteroides, Glc-1P (500 μM), Glc-1,6-2P (50 μM), and enzyme (5 nM). The reaction was carried out at 25 °C for 6 min in a total volume of 100 μl. Formation of NADPH was detected in real-time (every 1.5 min), measuring fluorescence signal (excitation at 360 nm; emission at 460 nm). To measure the inhibitory activity, compounds with different concentrations (3% (v/v) DMSO) were added to the reaction system. IC50 values were calculated using the product (NADPH) concentration at 6 min with 500 μM Glc-1P.
(§2) Figure S11: Representative enzyme activity assays for PGMs. Error bars represent standard deviation of three determinations. Panel A and B show the time course of PGMs and PGM mutants in which sugar recognition glutamates are mutated to glutamine. […] Values in parentheses indicate the time at which DTT (1 mM) was added.

CaPGMC359S = molecular target: T2, CaPGMC359S (Candida albicans, UniProt A0A1D8PSA9, C359S); assay: G6PDH coupled assay for PGM, CaPGM C359S mutant; type: biochemical; settings: 5 nM enzyme, no preincubation
T2 sequence (A0A1D8PSA9 1-560 C359S): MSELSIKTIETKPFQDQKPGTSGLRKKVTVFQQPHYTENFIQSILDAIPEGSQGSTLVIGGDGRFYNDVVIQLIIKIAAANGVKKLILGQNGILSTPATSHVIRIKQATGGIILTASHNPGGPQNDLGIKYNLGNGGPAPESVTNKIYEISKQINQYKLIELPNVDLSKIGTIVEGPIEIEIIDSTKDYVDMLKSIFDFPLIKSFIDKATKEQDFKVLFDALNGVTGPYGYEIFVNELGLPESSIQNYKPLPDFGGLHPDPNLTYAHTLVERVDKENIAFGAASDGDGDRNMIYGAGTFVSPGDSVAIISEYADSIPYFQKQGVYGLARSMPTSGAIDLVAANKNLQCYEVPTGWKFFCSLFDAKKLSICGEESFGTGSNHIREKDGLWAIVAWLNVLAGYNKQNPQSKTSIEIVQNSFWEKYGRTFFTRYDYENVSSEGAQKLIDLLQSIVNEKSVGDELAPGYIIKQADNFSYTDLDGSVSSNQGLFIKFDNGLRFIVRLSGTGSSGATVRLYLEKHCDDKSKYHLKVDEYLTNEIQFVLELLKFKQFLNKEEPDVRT
Procedure: as §1

AfPGM [1] = molecular target: T3, AfPGM (Aspergillus fumigatus, UniProt Q4WY53); assay: Covalent modification, intact protein mass spectrometry, AfPGM; type: binding; settings: AfPGM:ISFP1 1:20; one adduct per protein molecule; reversed by DTT
T3 construct: Full length AfPGM; 6His-GST (N, cleaved yes); made in house; host or cells: E. coli BL21 (DE3) pLysS
Procedure: (§3) PGM was dissolved to 20 μM in Hepes buffer (25 mM Hepes–NaOH (pH 7.5), 150 mM NaCl) and incubated with compound (protein:compound 1:20; 2% (v/v) DMSO) at 20 °C for 10 min (for AfPGM) or 4 °C overnight (for AfPGMC353∗). Excess compound molecules were removed using desalting column (CentriPure P2, Generon). PGM (20 μM) incubated with DMSO at the same condition was utilized as a control. The removal of isothiazolone adducts was carried out through the incubation with DTT (10 mM) at 20 °C for 10 min. DTT was removed using a desalting column (CentriPure P2, Generon). The ring-opened isothiazolone protein modification was confirmed using intact protein mass spectrometry.

AfPGM [2] = molecular target: T3, AfPGM; assay: Biolayer interferometry fragment binding; settings: 0 to 500 µM
Procedure: Amino groups of lysine side chains in PGM were biotinylated (EZ-Link NHSPEG4-Biotin) with one-to-one stoichiometry (one adduct per protein molecule). Biotinylated protein molecules were loaded on streptavidin-immobilized sensors (Super Streptavidin Biosensor). BLI was carried out using an Octet Red 384 instrument (ForteBio). Screening cycles included the baseline phase (protein was incubated for 60 s in screening buffer [25 mM Hepes–NaOH (pH 7.5), 150 mM NaCl, 2% DMSO (v/v]), the association phase (protein was incubated for 60 s in wells containing 200 μM fragment compounds dissolved in the screening buffer), and the dissociation phase (protein was incubated for 60 s in the screening buffer without any fragment compounds). Sensors blocked by biocytin were utilized as a control. Fragment compounds were purchased from Maybridge (1000 fragment compounds). Fragment compounds whose signal values were higher than the median value plus three times robust SD were considered as hits. The confirmation of hits was carried out using dose-response assays. Briefly, a BLI assay was carried out with each hit in a series of concentrations (from 0 to 500 μM). Running cycles included the baseline phase (60 s in the screening buffer), the association phase (120 s in the screening buffer with fragment compounds), and the dissociation phase (120 s in the screening buffer without compounds). […]

AfPGMC353∗ [3] = molecular target: T4, AfPGMC353∗ (Aspergillus fumigatus, UniProt Q4WY53, C131S/C242S/C364S); assay: G6PDH coupled assay for PGM, AfPGMC353∗ variant (C353 the sole cysteine); type: biochemical; settings: IC50 AfPGMC353, AfPGMC353∗ (all other cysteines mutated to serine) 5 nM, no preincubation
T4 construct: Full length AfPGM; 6His-GST (N, cleaved yes); made in house; host or cells: E. coli BL21 (DE3) pLysS
Procedure: as §1

AfPGMC353∗ [4] = molecular target: T4, AfPGMC353∗; assay: Covalent modification, intact protein mass spectrometry, AfPGMC353∗; type: binding; settings: AfPGMC353∗:ISFP1 1:20; single adduct on C353
Procedure: as §3

AfPGM [5] = molecular target: T3, AfPGM; assay: biochemical
Procedure: as §1, §2

A. fumigatus = assay: Growth inhibition (MIC) of A. fumigatus; type: cell-based; settings: Aspergillus fumigatus; preliminary experiments
From the text: Figure S12: Limited correlation between minimal inhibitory concentrations (MIC) and IC50 values of isothiazolone derivatives against AfPGM. […] The R^2 value of linear correlation is 0.15.

AfPGM [6] = molecular target: T3, AfPGM; assay: AfPGM enzyme kinetics in the presence of ISFP1 (G6PDH coupled assay); type: biochemical
Procedure: As previously described, two speculated mechanisms, perturbing substrate binding or phosphoryl transfer, have been proposed based on the complex structure of CaPGM-ISFP1. […] As such, the inhibitory mechanism is likely to be a consequence of slowing the rate of phosphoryl transfer.
as §1, §2

CaPGM = molecular target: T5, CaPGM (Candida albicans, UniProt A0A1D8PSA9); assay: G6PDH coupled assay for PGM, WT CaPGM; type: biochemical; settings: 5 nM enzyme, no preincubation
T5 sequence (A0A1D8PSA9 1-560): T2 sequence (A0A1D8PSA9 1-560 C359S)
Procedure: as §1

AfPGMC353V = molecular target: T6, AfPGMC353V (Aspergillus fumigatus, UniProt Q4WY53, C353V); assay: G6PDH coupled assay for PGM, AfPGM C353V mutant; type: biochemical; settings: 5 nM enzyme, no preincubation
T6 construct: Full length AfPGM; 6His-GST (N, cleaved yes); made in house; host or cells: E. coli BL21 (DE3) pLysS
Procedure: as §1

[7] = 50 µM ISFP1 preincubated 15 min with 5 nM enzyme, DTT 1 mM (Fig. S11G)

T3 sequence (Q4WY53 whole entry): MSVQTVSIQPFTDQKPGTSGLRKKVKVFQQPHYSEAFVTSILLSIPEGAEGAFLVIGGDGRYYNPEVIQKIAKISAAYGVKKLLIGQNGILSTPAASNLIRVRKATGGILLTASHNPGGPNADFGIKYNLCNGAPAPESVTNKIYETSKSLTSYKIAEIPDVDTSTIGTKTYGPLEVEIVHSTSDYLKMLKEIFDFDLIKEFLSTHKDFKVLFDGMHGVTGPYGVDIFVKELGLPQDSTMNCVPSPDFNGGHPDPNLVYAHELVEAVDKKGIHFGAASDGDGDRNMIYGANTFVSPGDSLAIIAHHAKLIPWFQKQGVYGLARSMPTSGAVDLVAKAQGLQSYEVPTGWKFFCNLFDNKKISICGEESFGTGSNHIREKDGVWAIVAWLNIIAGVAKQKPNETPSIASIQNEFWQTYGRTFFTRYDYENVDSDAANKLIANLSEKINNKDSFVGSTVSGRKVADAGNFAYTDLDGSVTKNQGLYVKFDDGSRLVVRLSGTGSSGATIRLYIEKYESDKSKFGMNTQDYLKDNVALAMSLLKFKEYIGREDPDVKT
T4 sequence (Q4WY53 whole entry C131S/C242S/C364S): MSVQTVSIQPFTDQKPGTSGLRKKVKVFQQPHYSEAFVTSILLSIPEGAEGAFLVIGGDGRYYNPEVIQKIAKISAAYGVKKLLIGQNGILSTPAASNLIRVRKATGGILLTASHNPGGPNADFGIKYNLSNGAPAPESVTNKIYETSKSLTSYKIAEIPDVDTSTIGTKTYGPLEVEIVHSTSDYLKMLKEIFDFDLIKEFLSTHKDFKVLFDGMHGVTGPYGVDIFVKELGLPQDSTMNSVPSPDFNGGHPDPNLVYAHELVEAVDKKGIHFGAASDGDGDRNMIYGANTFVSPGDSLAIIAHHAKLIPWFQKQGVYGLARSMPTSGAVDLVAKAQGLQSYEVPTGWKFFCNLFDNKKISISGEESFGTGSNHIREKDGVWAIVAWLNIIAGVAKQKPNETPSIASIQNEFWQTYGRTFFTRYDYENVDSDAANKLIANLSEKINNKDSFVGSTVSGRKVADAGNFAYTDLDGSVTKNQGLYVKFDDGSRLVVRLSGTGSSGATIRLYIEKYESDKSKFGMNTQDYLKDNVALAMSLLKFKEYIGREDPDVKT
T6 sequence (Q4WY53 whole entry C353V): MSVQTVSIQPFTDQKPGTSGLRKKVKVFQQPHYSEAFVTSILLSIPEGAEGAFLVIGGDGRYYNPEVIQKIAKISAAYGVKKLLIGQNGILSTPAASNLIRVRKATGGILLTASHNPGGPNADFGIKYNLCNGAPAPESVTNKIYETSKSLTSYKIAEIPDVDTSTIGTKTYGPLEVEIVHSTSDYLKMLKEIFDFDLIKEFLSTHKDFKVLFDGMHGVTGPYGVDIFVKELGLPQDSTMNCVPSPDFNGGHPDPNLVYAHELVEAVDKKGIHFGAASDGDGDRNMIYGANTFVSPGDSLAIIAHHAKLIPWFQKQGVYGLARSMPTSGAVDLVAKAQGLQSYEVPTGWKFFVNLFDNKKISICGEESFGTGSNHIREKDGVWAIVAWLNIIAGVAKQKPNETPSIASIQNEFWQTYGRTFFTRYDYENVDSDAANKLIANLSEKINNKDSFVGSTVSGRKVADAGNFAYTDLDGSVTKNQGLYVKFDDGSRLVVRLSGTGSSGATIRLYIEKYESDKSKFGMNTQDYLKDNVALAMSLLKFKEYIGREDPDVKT

O=c1ccsn1-c1cccc(Cl)c1F [ISFP1]
Rescue of HsPGM activity by DTT after inhibition (HsPGM; [7]): could not be rescued by DTT treatment | IC50 (HsPGM; IC50 HsPGM, HsPGM 5 nM, no preincubation, > values: highest concentration at which the compound can solubilize): 80 ± 2 µM | IC50 (HsPGM; enzyme preincubated with compound for 15 min (Fig. S11E, F), read-out: IC50 HsPGM after preincubation): 7.5 µM | IC50 (CaPGMC359S): > 400 µM | IC50 CaPGM C359S mutant (CaPGMC359S): No inhibition | Increase in protein mass after incubation with compound (AfPGM [1]): 232 Da | Binding to AfPGM by BLI (AfPGM [2]): bound to AfPGM in a concentration-dependent manner | IC50 (AfPGMC353∗ [3]): 3 µM | Increase in protein mass after incubation with compound (AfPGMC353∗ [4]): 232 Da | Rescue of AfPGM activity by DTT after inhibition (AfPGM [5]; [7]): rescued by the addition of DTT | IC50 (AfPGM [5]; WT AfPGM 5 nM, no preincubation, 500 μM Glc-1P): 2 µM | MIC (A. fumigatus): 10 µg/mL (≈ 43.5 µM) | Decrease of AfPGM kcat (AfPGM [6]; 20 μM ISFP1): 10 fold | Change of AfPGM Km (AfPGM [6]; in the presence of ISFP1): remains at the same level | IC50 (CaPGM): 5 µM | Inhibition of AfPGM C353V mutant (AfPGMC353V): does not inhibit; also recorded: not inhibited
